Patent US10750742B2, “Pesticidally active pyrazole derivatives” (SYNGENTA PARTICIPATIONS AG, priority 2015, dated 2020)

Experiments:
Type in all cases: in vivo
Myzus persicae [1] = assay: Myzus persicae (green peach aphid), sucrose solution / Parafilm test; conditions: 120 h, test rate of 12 ppm, sucrose solution, 5 days after infestation, read-out: mortality
From the text: (§1) Myzus persicae (Green Peach Aphid):
Test compounds were applied by pipette into 24 well plates and mixed with Sucrose solution. Application rate: 12.5 ppm. The plates were closed with a stretched parafilm. A plastic stencil with 24 holes is placed onto the plate and infested pea seedlings were placed directly on the Parafilm. The infested plate is closed with a gel blotting paper and another plastic stencil and then turned upside down. 5 days after infestation the samples were checked on mortality.

Myzus persicae [2] = assay: Myzus persicae (green peach aphid), sunflower leaf disc spray test; conditions: foliar, 144 h, application rate 200 ppm, mixed ages, 6 DAT, read-out: mortality
Procedure: as §1
Sunflower leaf discs were placed on agar in a 24-well microtiter plate and sprayed with test solutions at an application rate of 200 ppm. After drying, the leaf discs were infested with an aphid population of mixed ages. After an incubation period of 6 DAT, samples were checked for mortality. The following compounds gave at least 80% mortality of Myzus persicae: compounds 1,2, 3, 4, 5, 6, 11, 12, 15, 17, 18, 19, 20, 23, 24, 25, 26, 27, 30, 32, 33, 34 35, 41, 43, 44, 47, 50, 55, 58, 59, 60, 61, 62, 63, 64, 65 and 66.

Spodoptera littoralis = Spodoptera littoralis (Egyptian cotton leaf worm), cotton leaf disc spray test; conditions: foliar, 72 h, application rate 200 ppm, L1 larvae, 3 days after infestation, read-out: control (at least one of mortality, anti-feedant effect, growth inhibition)
Procedure: Spodoptera littoralis (Egyptian Cotton Leaf Worm)
Cotton leaf discs were placed on agar in 24-well microtiter plates and sprayed with aqueous test solutions prepared from 10′000 ppm DMSO stock solutions. After drying the leaf discs were infested with five L1 larvae. The samples were assessed for mortality, anti-feedant effect, and growth inhibition in comparison to untreated samples 3 days after infestation. Control of Spodoptera littoralis by a test sample is when at least one of mortality, anti-feedant effect, and growth inhibition is higher than the untreated sample.

Diabrotica balteata = Diabrotica balteata (corn root worm), maize sprout test; conditions: 96 h, application rate 200 ppm, L2 larvae, 4 days after infestation, read-out: control (mortality and growth inhibition)
Procedure: Diabrotica balteata, (Corn Root Worm)
Maize sprouts, placed on an agar layer in 24-well microtiter plates were treated with aqueous test solutions prepared from 10′000 ppm DMSO stock solutions by spraying. After drying, the plates were infested with L2 larvae (6 to 10 per well). The samples were assessed for mortality and growth inhibition in comparison to untreated samples 4 days after infestation.

Plutella xylostella = Plutella xylostella (diamond back moth), artificial diet test; conditions: 120 h, application rate 200 ppm, L2 larvae, 5 days after infestation, read-out: control (mortality and growth inhibition)
Procedure: Plutella xylostella (Diamond Back Moth):
24-well microtiter plates with artificial diet were treated with aqueous test solutions prepared from 10′000 ppm DMSO stock solutions by pipetting. After drying, the plates were infested with L2 larvae (10 to 15 per well). The samples were assessed for mortality and growth inhibition in comparison to untreated samples 5 days after infestation.

Euschistus heros = Euschistus heros (neotropical brown stink bug), soybean leaf test; conditions: 120 h, application rate 200 ppm, N2 nymphs, 5 days after infestation, read-out: effect in at least one of the two categories (mortality or growth inhibition)
Procedure: Euschistus heros (Neotropical Brown Stink Bug):
Soybean leaves on agar in 24-well microtiter plates were sprayed with aqueous test solutions prepared from 10′000 ppm DMSO stock solutions. After drying the leaves were infested with N2 nymphs. The samples were assessed for mortality and growth inhibition in comparison to untreated samples 5 days after infestation.

Tetranychus urticae = Tetranychus urticae (two-spotted spider mite), bean leaf disc test; conditions: foliar, 192 h, application rate 200 ppm, 8 days after infestation, read-out: control (mortality on mixed population, mobile stages)
Procedure: Tetranychus urticae (Two-Spotted Spider Mite):
Bean leaf discs on agar in 24-well microtiter plates were sprayed with aqueous test solutions prepared from 10′000 ppm DMSO stock solutions. After drying the leaf discs were infested with a mite population of mixed ages. The samples were assessed for mortality on mixed population (mobile stages) 8 days after infestation.

Thrips tabaci = Thrips tabaci (onion thrips), sunflower leaf disc test; conditions: foliar, 144 h, application rate 200 ppm, mixed ages, 6 days after infestation, read-out: control (mortality)
Procedure: Thrips tabaci (Onion Thrips):
Sunflower leaf discs were placed on agar in 24-well microtiter plates and sprayed with aqueous test solutions prepared from 10′000 ppm DMSO stock solutions. After drying the leaf discs were infested with a thrips population of mixed ages. The samples were assessed for mortality 6 days after infestation.

Cn1nc(OC(F)F)c(C(F)(F)F)c1-n1cc(-c2ccc(Cl)c(C(=O)NC3(C#N)CC3)c2)cn1 [compound 1]
≥ 80%: mortality at 12 ppm (Myzus persicae [1]) | mortality at 200 ppm (Myzus persicae [2]) | percent control (mortality, anti-feedant effect or growth inhibition) at 200 ppm (Spodoptera littoralis) | mortality at 200 ppm (Diabrotica balteata) | mortality at 200 ppm (Plutella xylostella) | percent effect (mortality or growth inhibition) at 200 ppm (Euschistus heros)

Cn1nc(OCC(F)(F)F)c(C(F)(F)F)c1-n1cc(-c2ccc(Cl)c(C(=O)NC3CC3)c2)cn1 [compound 2]
≥ 80%: mortality at 200 ppm (Tetranychus urticae) | mortality at 12 ppm (Myzus persicae [1]) | mortality at 200 ppm (Thrips tabaci) | mortality at 200 ppm (Myzus persicae [2]) | percent control (mortality, anti-feedant effect or growth inhibition) at 200 ppm (Spodoptera littoralis) | mortality at 200 ppm (Diabrotica balteata) | mortality at 200 ppm (Plutella xylostella) | percent effect (mortality or growth inhibition) at 200 ppm (Euschistus heros)

Cn1nc(OCC(F)(F)F)c(C(F)(F)F)c1-n1cc(-c2ccc(Cl)c(C(=O)NC3(C#N)CC3)c2)cn1 [compound 3]
≥ 80%: mortality at 200 ppm (Tetranychus urticae) | mortality at 12 ppm (Myzus persicae [1]) | mortality at 200 ppm (Thrips tabaci) | mortality at 200 ppm (Myzus persicae [2]) | percent control (mortality, anti-feedant effect or growth inhibition) at 200 ppm (Spodoptera littoralis) | mortality at 200 ppm (Diabrotica balteata) | mortality at 200 ppm (Plutella xylostella) | percent effect (mortality or growth inhibition) at 200 ppm (Euschistus heros)

COc1nn(C)c(-n2cc(-c3ccc(Cl)c(C(=O)NC4(C#N)CC4)c3)cn2)c1C(F)(F)F [compound 5]
≥ 80%: mortality at 12 ppm (Myzus persicae [1]) | mortality at 200 ppm (Myzus persicae [2])

Cn1nc(OC(F)(F)C(F)F)c(C(F)(F)F)c1-n1cc(-c2ccc(Cl)c(C(=O)NC3(C#N)CC3)c2)cn1 [compound 11]
≥ 80%: mortality at 200 ppm (Tetranychus urticae) | mortality at 12 ppm (Myzus persicae [1]) | mortality at 200 ppm (Thrips tabaci) | mortality at 200 ppm (Myzus persicae [2]) | percent control (mortality, anti-feedant effect or growth inhibition) at 200 ppm (Spodoptera littoralis) | mortality at 200 ppm (Diabrotica balteata) | mortality at 200 ppm (Plutella xylostella) | percent effect (mortality or growth inhibition) at 200 ppm (Euschistus heros)

Cn1nc(OC(F)(F)C(F)(F)Br)c(C(F)(F)F)c1-n1cc(-c2ccc(Cl)c(C(=O)NC3(C#N)CC3)c2)cn1 [compound 12]
≥ 80%: mortality at 200 ppm (Tetranychus urticae) | mortality at 12 ppm (Myzus persicae [1]) | mortality at 200 ppm (Thrips tabaci) | mortality at 200 ppm (Myzus persicae [2]) | percent control (mortality, anti-feedant effect or growth inhibition) at 200 ppm (Spodoptera littoralis) | mortality at 200 ppm (Diabrotica balteata) | mortality at 200 ppm (Plutella xylostella) | percent effect (mortality or growth inhibition) at 200 ppm (Euschistus heros)

Cn1nc(OCC(F)F)c(C(F)(F)F)c1-n1cc(-c2ccc(Cl)c(C(=O)NC3CC3)c2)cn1 [compound 24]
≥ 80%: mortality at 200 ppm (Tetranychus urticae) | mortality at 12 ppm (Myzus persicae [1]) | mortality at 200 ppm (Myzus persicae [2]) | percent control (mortality, anti-feedant effect or growth inhibition) at 200 ppm (Spodoptera littoralis) | mortality at 200 ppm (Diabrotica balteata) | mortality at 200 ppm (Plutella xylostella) | percent effect (mortality or growth inhibition) at 200 ppm (Euschistus heros)

Cn1nc(OCCOC(F)(F)F)c(C(F)(F)F)c1-n1cc(-c2ccc(Cl)c(C(=O)NC3CC3)c2)cn1 [compound 34]
≥ 80%: mortality at 200 ppm (Tetranychus urticae) | mortality at 12 ppm (Myzus persicae [1]) | mortality at 200 ppm (Myzus persicae [2]) | percent control (mortality, anti-feedant effect or growth inhibition) at 200 ppm (Spodoptera littoralis) | mortality at 200 ppm (Diabrotica balteata) | mortality at 200 ppm (Plutella xylostella) | percent effect (mortality or growth inhibition) at 200 ppm (Euschistus heros)

Cn1nc(OC(F)(F)CBr)c(C(F)(F)F)c1-n1cc(-c2ccc(Cl)c(C(=O)NC3(C#N)CC3)c2)cn1 [compound 41]
≥ 80%: mortality at 200 ppm (Tetranychus urticae) | mortality at 200 ppm (Thrips tabaci) | mortality at 200 ppm (Myzus persicae [2]) | percent control (mortality, anti-feedant effect or growth inhibition) at 200 ppm (Spodoptera littoralis) | mortality at 200 ppm (Diabrotica balteata) | mortality at 200 ppm (Plutella xylostella) | percent effect (mortality or growth inhibition) at 200 ppm (Euschistus heros)
